One block for each molecule: values may come before it.
How the values were obtained:
[1] = tested on: Human immunodeficiency virus 1; experiment: Antiviral activity against Human immunodeficiency virus 1 3B; format: functional, organism-based
[2] = tested on: Human immunodeficiency virus 1; experiment: Antiviral activity against Human immunodeficiency virus 1 infected in human MT4 cells; format: functional, organism-based; settings: Human immunodeficiency virus 1, MT4
[3] = Selectivity index, ratio of human MT4 cytotoxicity to inhibition of HIV1 cytopathicity; format: toxicity; settings: MT4 cells, read-out: Selectivity Index
[4] = molecular target: T1, Human immunodeficiency virus type 1 reverse transcriptase (Human immunodeficiency virus 1, UniProt Q72547); experiment: Inhibition of wild-type HIV1 reverse transcriptase
[5] = molecular target: Human immunodeficiency virus type 1 reverse transcriptase (Human immunodeficiency virus 1, UniProt Q72547, K103N); experiment: Inhibition of HIV1 reverse transcriptase K103N mutant
[6] = molecular target: Human immunodeficiency virus type 1 reverse transcriptase (Human immunodeficiency virus 1, UniProt Q72547, Y181C); experiment: Inhibition of HIV1 reverse transcriptase Y181C mutant
[7] = tested on: Human immunodeficiency virus type 1 reverse transcriptase (Human immunodeficiency virus 1), Q72547 [K103N]; experiment: Inhibition of HIV reverse transcriptase K103N mutant
[8] = tested on: Human immunodeficiency virus; experiment: Inhibition of wild-type HIV reverse transcriptase
[9] = molecular target: T1, Human immunodeficiency virus type 1 reverse transcriptase; experiment: Inhibition of HIV1 reverse transcriptase

EC50 [1]: 15 nM
Structure (SMILES): CC1=C(C(=O)Nc2ccc(Cl)c(C(=O)OC(C)C)c2)SCCO1

EC50 [2]: 610 nM
Structure (SMILES): COc1ccccc1NC(C(N)=O)c1c(Cl)cccc1Cl (stereo not given)
selectivity ratio [3]: 10000

EC50 [2]: 13 nM
Structure (SMILES): CC(=O)c1ccc(C)cc1NC(C(N)=O)c1c(Cl)cccc1Cl (stereo not given) [LOVIRIDE]
selectivity ratio [3]: 10000

Structure (SMILES): Cc1cc(S(N)(=O)=O)ccc1NC(=O)COc1ccc(Cl)cc1C(=O)c1cc(F)cc(C(F)(F)F)c1
IC50 [4]: < 2 nM
IC50 [5]: < 10 nM
IC50 [6]: < 10 nM

EC50 [2]: 4.3 nM
Structure (SMILES): CC(C)=CCN1Cc2c(Cl)ccc3[nH]c(=S)n(c23)C[C@@H]1C [TIVIRAPINE]

EC50 [2]: 62000 nM
Structure (SMILES): C=CCN1Cc2cccc3[nH]c(=O)n(c23)CC1C (stereo not given)

EC50 [1]: 15 nM
Structure (SMILES): CC(C)=CCOc1cc(NC(=S)c2ccsc2C)ccc1Cl

Structure (SMILES): CCC1(c2cccc(OC)c2)Oc2ccccc2-n2cccc2C1=O (stereo not given)
INH [7]: 0.022 µM
INH [8]: 0.05 µM

IC50 [9]: 21000 nM
Structure (SMILES): CCN(CC)CCOc1ccc(NC(=O)COc2ccccc2C(=O)c2ccc(OC)cc2)cc1

EC50 [1]: 15 nM
Structure (SMILES): CC(C)=CCOc1cc(NC(=S)c2ccoc2C)ccc1Cl [UC 781]

— ChEMBL document CHEMBL1152512, “The search for potent, small molecule NNRTIs: A review” (Bioorg Med Chem, 2009)
